Data from patent US6960597B2, “Aza-bridged-bicyclic amino acid derivatives as α4 integrin antagonists” (Orth-McNeil Pharmaceutical, Inc., priority 2000, dated 2005).
Where two headings read alike, the source gives them in different places.

Assays:
human α4β7 = target: T1, human α4β7 (Homo sapiens, UniProt P13612+P26010); experiment: α4β7-K562 Cell Adhesion Assay (α4β7 Mediated Adhesion/VCAM-1); type: cell-based
T1 construct: expressed in transfected cells
T1 sequence (P13612 34-1032): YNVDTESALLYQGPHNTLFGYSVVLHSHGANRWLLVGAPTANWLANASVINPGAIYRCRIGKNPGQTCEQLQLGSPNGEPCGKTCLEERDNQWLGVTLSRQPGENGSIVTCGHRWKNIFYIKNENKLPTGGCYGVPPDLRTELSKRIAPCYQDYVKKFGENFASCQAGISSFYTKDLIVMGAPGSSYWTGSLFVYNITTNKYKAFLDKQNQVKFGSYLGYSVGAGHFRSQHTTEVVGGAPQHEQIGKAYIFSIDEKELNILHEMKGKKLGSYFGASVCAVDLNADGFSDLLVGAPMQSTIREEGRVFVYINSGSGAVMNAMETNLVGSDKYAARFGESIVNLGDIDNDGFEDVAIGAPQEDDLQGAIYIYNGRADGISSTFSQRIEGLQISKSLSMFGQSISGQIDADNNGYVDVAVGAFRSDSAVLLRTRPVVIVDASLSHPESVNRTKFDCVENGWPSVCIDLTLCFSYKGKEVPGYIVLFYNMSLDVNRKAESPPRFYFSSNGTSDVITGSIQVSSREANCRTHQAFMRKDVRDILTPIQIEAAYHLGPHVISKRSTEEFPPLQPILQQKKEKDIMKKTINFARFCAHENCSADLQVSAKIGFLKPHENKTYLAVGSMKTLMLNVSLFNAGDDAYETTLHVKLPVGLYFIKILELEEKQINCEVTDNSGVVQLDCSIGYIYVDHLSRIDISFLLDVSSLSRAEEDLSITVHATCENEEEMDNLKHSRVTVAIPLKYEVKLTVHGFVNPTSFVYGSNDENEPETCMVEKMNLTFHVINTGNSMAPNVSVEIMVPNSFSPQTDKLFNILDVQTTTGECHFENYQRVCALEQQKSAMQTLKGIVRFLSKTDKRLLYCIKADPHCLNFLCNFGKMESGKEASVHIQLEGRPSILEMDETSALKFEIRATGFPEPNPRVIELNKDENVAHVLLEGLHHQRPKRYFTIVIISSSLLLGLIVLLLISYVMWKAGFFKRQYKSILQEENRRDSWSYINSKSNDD
T1 sequence (P26010 20-798): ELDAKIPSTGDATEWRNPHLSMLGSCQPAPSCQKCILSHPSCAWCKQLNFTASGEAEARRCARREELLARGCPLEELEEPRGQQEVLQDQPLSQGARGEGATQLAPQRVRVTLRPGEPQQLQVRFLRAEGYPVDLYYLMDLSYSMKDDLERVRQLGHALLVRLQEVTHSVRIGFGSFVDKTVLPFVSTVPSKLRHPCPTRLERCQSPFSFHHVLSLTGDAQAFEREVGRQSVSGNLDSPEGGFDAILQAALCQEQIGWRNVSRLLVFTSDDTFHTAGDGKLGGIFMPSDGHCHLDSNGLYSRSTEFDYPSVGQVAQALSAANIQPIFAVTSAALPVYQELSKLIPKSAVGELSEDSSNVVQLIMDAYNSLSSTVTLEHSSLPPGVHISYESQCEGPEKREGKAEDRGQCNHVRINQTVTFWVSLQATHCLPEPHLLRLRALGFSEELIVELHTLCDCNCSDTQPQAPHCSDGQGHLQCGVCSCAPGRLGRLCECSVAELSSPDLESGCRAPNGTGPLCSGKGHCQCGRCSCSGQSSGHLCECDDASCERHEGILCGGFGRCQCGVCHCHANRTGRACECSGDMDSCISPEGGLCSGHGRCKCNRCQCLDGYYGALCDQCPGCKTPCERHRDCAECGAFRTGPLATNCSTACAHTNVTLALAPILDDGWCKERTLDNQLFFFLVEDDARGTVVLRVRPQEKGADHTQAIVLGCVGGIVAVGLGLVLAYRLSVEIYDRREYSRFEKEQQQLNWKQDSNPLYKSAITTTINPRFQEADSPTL
Experimental: α4β7-K562 Cell Adhesion Assay (α4β7 Mediated Adhesion/VCAM-1)
(§1) Immulon 96 well plates (Dynex) were coated with 100 μL recombinant hVCAM-1 at 4.0 μg/mL in 0.05 M NaCO3 buffer pH 9.0 overnight at 4° C. (R&D Systems). Plates were washed 3 times in PBS with 1% BSA and blocked for 1 h @ room temperature in this buffer. PBS was removed and compounds to be tested (50 μL) were added at 2× concentration. A stable cell line of K562 cells expressing human α4β7, (50 μL at 2×10^6/mL) labeled with 5 μM Calcein AM (Molecular Probes) for 1 h at 37° C., were added to each well and allowed to adhere for 1 h at room temperature. Plates were washed 3× in PBS+1% BSA and cells were lysed for 15 minutes in 100 μL of 1 M Tris pH 8.0 with 1% SDS. The plate was read at 485 nm excitation and 530 nm emission.

α4β1 integrin receptor = target: T2, α4β1 integrin receptor (Homo sapiens, UniProt P05556+P13612); experiment: Ramos Cell Adhesion Assay (α4β1 Mediated Adhesion/VCAM-1); type: cell-based
T2 construct: Ramos Cell Adhesion Assay (α4β1 Mediated Adhesion/VCAM-1); endogenous in cells; host or cells: Ramos cells
T2 sequence (P05556 21-798, one chain of several): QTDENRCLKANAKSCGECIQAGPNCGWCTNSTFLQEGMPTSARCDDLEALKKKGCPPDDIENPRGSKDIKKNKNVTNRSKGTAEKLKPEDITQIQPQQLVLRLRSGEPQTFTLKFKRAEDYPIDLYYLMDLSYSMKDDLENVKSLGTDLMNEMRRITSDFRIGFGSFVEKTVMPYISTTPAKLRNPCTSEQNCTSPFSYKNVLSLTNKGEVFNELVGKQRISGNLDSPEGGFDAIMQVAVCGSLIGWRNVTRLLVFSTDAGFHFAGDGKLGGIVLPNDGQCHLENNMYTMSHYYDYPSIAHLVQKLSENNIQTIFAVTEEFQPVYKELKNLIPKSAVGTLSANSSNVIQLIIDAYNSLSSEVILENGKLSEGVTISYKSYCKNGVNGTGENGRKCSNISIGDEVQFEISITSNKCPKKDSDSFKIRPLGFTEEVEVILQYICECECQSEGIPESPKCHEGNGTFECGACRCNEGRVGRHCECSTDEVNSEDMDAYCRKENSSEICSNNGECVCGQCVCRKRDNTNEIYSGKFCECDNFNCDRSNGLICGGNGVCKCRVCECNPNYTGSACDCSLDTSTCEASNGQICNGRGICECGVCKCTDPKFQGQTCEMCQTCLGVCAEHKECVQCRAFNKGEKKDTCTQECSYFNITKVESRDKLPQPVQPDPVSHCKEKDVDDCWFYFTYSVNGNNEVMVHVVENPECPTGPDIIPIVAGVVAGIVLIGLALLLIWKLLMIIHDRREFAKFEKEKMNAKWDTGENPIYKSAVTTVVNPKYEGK
Experimental: Ramos Cell Adhesion Assay (α4β1 Mediated Adhesion/VCAM-1)
as §1, with “Ramos cells,” for “A stable cell line of K562 cells expressing human α4β7,”

[1] = Table I, racemic mixtures and resolved (S,S) and (R,S) diastereomers, read-out: Antagonist IC50 Activity α4β7
[2] = Table I, racemic mixtures and resolved (S,S) and (R,S) diastereomers, read-out: Antagonist IC50 Activity α4β1
[3] = Table III, read-out: Inhibition of Binding of Ramos Cells to Immobilized VCAM-1 IC50
[4] = Table IV, read-out: Inhibition of Binding of K562 Cells to Immobilized VCAM-1 IC50
[5] = Table IV, μM, read-out: Inhibition of Binding of K562 Cells to Immobilized VCAM-1 IC50

Row | SMILES | IC50 (human α4β7; [1]) [µM] | IC50 (α4β1 integrin receptor; [2]) [nM] | IC50 (α4β1 integrin receptor; [3]) [nM] | IC50 (human α4β7; [4]) [µM] | IC50 (human α4β7; [5]) [µM]
1 | O=C(Nc1ccc(C[C@H](NC(=O)[C@H]2C3CCC(CC3)N2S(=O)(=O)c2ccccc2)C(=O)O)cc1)c1c(Cl)cccc1Cl [Cpd 6b, 4-[(2,6-dichlorobenzoyl)amino]-N-[[(3R)-2-(phenylsulfonyl)-2-azabicyclo[2.2.2]oct-3-yl]carbonyl]-L-phenylalanine] | 0.421 | 222 | 222 |  | 
2 | COc1cccc(OC)c1-c1ccc(C[C@H](NC(=O)[C@@H]2C3CCC(CC3)N2S(=O)(=O)c2ccccc2)C(=O)O)cc1 [Cpd 8, 4-(2,6-dimethoxyphenyl)-N-[[(3S)-2-(phenylsulfonyl)-2-azabicyclo[2.2.2]oct-3-yl]carbonyl]-L-phenylalanine] |  |  | 81 | 0.343 | 
3 | Cc1ccc(S(=O)(=O)N2C3CCC(CC3)C2C(=O)N[C@@H](Cc2ccc(NC(=O)c3ccccc3C)cc2)C(=O)O)cc1 (stereo partly drawn) [Cpd 9, 4-[(2-methylbenzoyl)amino]-N-[[2-[(4-methylphenyl)sulfonyl]-2-azabicyclo[2.2.2]oct-3-yl]carbonyl]-(α^1S)-phenylalanine] |  |  | 267 |  | > 5
4 | Cc1ccc(S(=O)(=O)N2C3CCC(CC3)C2C(=O)N[C@@H](Cc2ccc(NC(=O)c3ccccc3Cl)cc2)C(=O)O)cc1 (stereo partly drawn) [Cpd 10, 4-[(2-chlorobenzoyl)amino]-N-[[2-[(4-methylphenyl)sulfonyl]-2-azabicyclo[2.2.2]oct-3-yl]carbonyl]-L-phenylalanine] |  |  | 145 | 4.41 | 
5 | Cc1ccc(S(=O)(=O)N2C3CCC(CC3)C2C(=O)N[C@@H](Cc2ccc(NC(=O)c3c(F)cccc3F)cc2)C(=O)O)cc1 (stereo partly drawn) [Cpd 11, 4-[(2,6-difluorobenzoyl)amino]-N-[[2-[(4-methylphenyl)sulfonyl]-2-azabicyclo[2.2.2]oct-3-yl]carbonyl]-L-phenylalanine] |  |  | 179 | 1.49 | 
6 | Cc1ccc(S(=O)(=O)N2C3CCC(CC3)C2C(=O)N[C@@H](Cc2ccc(NC(=O)c3ccccc3C(F)(F)F)cc2)C(=O)O)cc1 (stereo partly drawn) [Cpd 12, 4-[[2-(trifluoromethyl)benzoyl]amino]-N-[[2-[(4-methylphenyl)sulfonyl]-2-azabicyclo[2.2.2]oct-3-yl]carbonyl]-L-phenylalanine] |  |  | 104 | 1.08 | 
7 | Cc1ccc(S(=O)(=O)N2C3CCC(CC3)C2C(=O)N[C@@H](Cc2ccc(NC(=O)c3ccccc3OC(F)(F)F)cc2)C(=O)O)cc1 (some centres unmarked) [Cpd 13] |  |  | 119 |  | > 10
8 | Cc1ccc(S(=O)(=O)N2C3CCC(CC3)C2C(=O)N[C@@H](Cc2ccc(NC(=O)c3ccccc3Br)cc2)C(=O)O)cc1 (stereo partly drawn) [Cpd 14, 4-[(2-bromobenzoyl)amino]-N-[[2-[(4-methylphenyl)sulfonyl]-2-azabicyclo[2.2.2]oct-3-yl]carbonyl]-L-phenylalanine] |  |  | 160 | 0.913 | 
9 | O=C(Nc1ccc(C[C@H](NC(=O)C2C3CCC(CC3)N2S(=O)(=O)c2ccccc2)C(=O)O)cc1)c1c(F)cccc1F (stereo partly drawn) [Cpd 15, 4-[(2,6-difluorobenzoyl)amino]-N-[[2-(phenylsulfonyl)-2-azabicyclo[2.2.2]oct-3-yl]carbonyl]-L-phenylalanine] |  |  | 67 | 1.39 | 
10 | O=C(Nc1ccc(C[C@H](NC(=O)[C@@H]2C3CCC(C3)N2S(=O)(=O)c2ccccc2)C(=O)O)cc1)c1c(Cl)cccc1Cl (stereo partly drawn) [Cpd 16a, 4-[(2,6-dichlorobenzoyl)amino]-N-[[(3S)-2-(phenylsulfonyl)-2-azabicyclo[2.2.1]hept-3-yl]carbonyl]-L-phenylalanine] | 2.09 | 153 | 153 |  | 
11 | O=C(Nc1ccc(C[C@H](NC(=O)[C@H]2C3CCC(C3)N2S(=O)(=O)c2ccccc2)C(=O)O)cc1)c1c(Cl)cccc1Cl (stereo partly drawn) [Cpd 16b, 4-[(2,6-dichlorobenzoyl)amino]-N-[[(3R)-2-(phenylsulfonyl)-2-azabicyclo[2.2.1]hept-3-yl]carbonyl]-L-phenylalanine] | 0.393 | 240 | 240 |  | 
12 | COc1cccc(OC)c1-c1ccc(C[C@H](NC(=O)[C@H]2C3CCC(CC3)N2S(=O)(=O)c2ccc(C)cc2)C(=O)O)cc1 [Cpd 18a, 4-(2,6-dimethoxyphenyl)-N-[[(3R)-2-[(4-methylphenyl)sulfonyl]-2-azabicyclo[2.2.2]oct-3-yl]carbonyl]-L-phenylalanine] | 9 | 857 | 857 |  | 
13 | COc1cccc(OC)c1C(=O)Nc1ccc(C[C@H](NC(=O)[C@@H]2C3CCC(C3)N2S(=O)(=O)c2ccccc2)C(=O)O)cc1 (stereo partly drawn) [Cpd 19a, 4-[(2,6-dimethoxybenzoyl)amino]-N-[[(3S)-2-(phenylsulfonyl)-2-azabicyclo[2.2.1]hept-3-yl]carbonyl]-L-phenylalanine] | 3.82 | 300 | 300 |  | 
14 | COc1cccc(OC)c1C(=O)Nc1ccc(C[C@H](NC(=O)[C@H]2C3CCC(C3)N2S(=O)(=O)c2ccccc2)C(=O)O)cc1 (stereo partly drawn) [Cpd 19b, 4-[(2,6-dimethoxybenzoyl)amino]-N-[[(3R)-2-(phenylsulfonyl)-2-azabicyclo[2.2.1]hept-3-yl]carbonyl]-L-phenylalanine] | 3.22 | 1210 | 1210 |  | 
15 | Cc1ccc(S(=O)(=O)N2C3CCC(CC3)C2C(=O)N[C@@H](Cc2ccc(C#Cc3ccc(C(C)(C)C)cc3)cc2)C(=O)O)cc1 (stereo partly drawn) [Cpd 23, 4-[[4-(1,1-dimethylethyl)phenyl]ethynyl]-N-[[2-[(4-methylphenyl)sulfonyl]-2-azabicyclo[2.2.2]oct-3-yl]carbonyl]-L-phenylalanine] |  |  | 1420 |  | > 10
16 | Cc1ccc(S(=O)(=O)N2C3CCC(CC3)C2C(=O)N[C@@H](Cc2ccc(C#Cc3ccccc3)cc2)C(=O)O)cc1 (stereo partly drawn) [Cpd 24, 4-(phenylethynyl)-N-[[2-[(4-methylphenyl)sulfonyl]-2-azabicyclo[2.2.2]oct-3-yl]carbonyl]-L-phenylalanine] |  |  | 1100 |  | > 10
